Measurements: publication PMC4833812, “Incorporation of tryptophan analogues into the lantibiotic nisin” (Amino Acids, 2016)

Experiments:
L. lactis MG1363 = assay: MIC test against indicator strain L. lactis MG1363; type: cell-based, Lactococcus lactis; details: for Change of antimicrobial activity, in words: I1 variants compared to I1W, I4 variant compared to nisin
Description: The indicator strain L. lactis MG1363 was first streaked on a GM17 plate and cultured overnight. Before testing the MIC, three to five colonies were picked and cultured with GM17 medium until OD600 reached 0.5. The culture was diluted 500 times with GM17 and mixed with the same volume of peptides dissolved in GM17. The MIC value test was performed according to Wiegand et al. ([2008]).

[1] = Retention time in reverse phase chromatography (HPLC); type: physicochemical; details: reverse phase HPLC as described previously (Zhou et al. 2015); used by the paper to reflect changed hydrophobicity/polarity of the variants
Description: To obtain pure peptides for activity tests, the supernatant of 100 ml culture (filtered with 0.2 µm filter, Millipore) was first incubated with 5 ml supernatant of NisP (filtered) at 30 °C for 1 h to cut off the leader part and then purified with cation-ion exchange (HiTrap SP FF, GE healthcare) (van Heel et al. [2013]). The elutions were further loaded on a C18 column (Spherical C18, Sigma- Aldrich). The column was washed and eluted with different concentrations of solution B (solution A, milliQ with 0.1 % TFA; solution B, isopropanol: acetonitrile (2:1) with 0.1 % TFA). The elutions which were active against L. lactis were freeze-dried and further purified with HPLC as described previously (Zhou et al. [2015]). The fractions containing the peaks in the HPLC chromatogram were analysed by activity tests and MALDI-TOF (van Heel et al. [2013]). The peak which was active and contained the pure peptide with right mass was freeze-dried and quantified with HPLC as described previously (Zhou et al. [2015]).
Nisin is a positively charged and hydrophobic molecule. […] This difference was reflected by the elution time of the peptides in cation-ion exchange and reverse phase chromatography (HPLC). The variants with 5HW were eluted about half column volume earlier than other variants during cation-ion exchange (data not shown).

Micrococcus flavus = details: ref Kuipers et al. 1995; Demel et al. 1996; Van Kraaij et al. 1997; Breukink et al. 1998; cited from earlier work
Text: (§1) The first two rings of nisin can bind to lipid II which is essential for cell wall synthesis. The C-terminus of nisin can insert into the membrane enabling pore formation (Breukink and de Kruijff [2006]). Mutagenesis of nisin has been conducted extensively and several residues have been mutated to tryptophan, e.g. I1W, M17W and V32W, which all reduce nisin activity but not dramatically, against Micrococcus flavus by two to three times and against Streptococcus thermophilus by three to eigh ... || The first two rings of nisin can bind to lipid II by forming a pyrophosphate cage (Hsu et al. [2004]).

[2] = tested on: Streptococcus thermophilus; details: ref Kuipers et al. 1995; Demel et al. 1996; Van Kraaij et al. 1997; Breukink et al. 1998; cited from earlier work
Text: as §1

C=C(NC(=O)[C@@H](NC(=O)[C@H](Cc1c[nH]cn1)NC(=O)[C@@H](NC(=O)[C@H](CO)NC(=O)[C@@H]1CS[C@@H](C)[C@H]2NC(=O)[C@H](C)NC(=O)[C@H](NC(=O)[C@H](CCCCN)NC(=O)[C@H](CCSC)NC(=O)[C@H](CC(N)=O)NC(=O)[C@@H]3CS[C@@H](C)[C@@H](NC(=O)[C@H](CCCCN)NC(=O)[C@@H]4CS[C@@H](C)[C@@H](NC(=O)[C@@H]5CSC[C@@H](NC(=O)/C(=C/C)NC(=O)[C@@H](N)Cc6c[nH]c7ccc(F)cc67)C(=O)N[C@@H]([C@@H](C)CC)C(=O)NC(=C)C(=O)N[C@@H](CC(C)C)C(=O)N5)C(=O)N5CCC[C@H]5C(=O)NCC(=O)N4)C(=O)NCC(=O)N[C@@H](C)C(=O)N[C@@H](CC(C)C)C(=O)N[C@@H](CCSC)C(=O)NCC(=O)N3)[C@H](C)SC[C@H](NC2=O)C(=O)N[C@@H](Cc2c[nH]cn2)C(=O)N1)[C@@H](C)CC)C(C)C)C(=O)N[C@@H](CCCCN)C(=O)O [I1-5FW]
Change of antimicrobial activity, in words (L. lactis MG1363; listed as 5FW analogue of I1W): did not change the activity
Change of antimicrobial activity, in words (L. lactis MG1363; listed as 5FW labelled I1W): the same activity
Reduction of antimicrobial activity compared to nisin (L. lactis MG1363; from MIC values): two
Retention time of HPLC [1]: 38.9 min

C=C(NC(=O)[C@@H](NC(=O)[C@H](Cc1c[nH]cn1)NC(=O)[C@@H](NC(=O)[C@H](CO)NC(=O)[C@@H]1CS[C@@H](C)[C@H]2NC(=O)[C@H](C)NC(=O)[C@H](NC(=O)[C@H](CCCCN)NC(=O)[C@H](CCSC)NC(=O)[C@H](CC(N)=O)NC(=O)[C@@H]3CS[C@@H](C)[C@@H](NC(=O)[C@H](CCCCN)NC(=O)[C@@H]4CS[C@@H](C)[C@@H](NC(=O)[C@@H]5CSC[C@@H](NC(=O)/C(=C/C)NC(=O)[C@@H](N)Cc6c[nH]c7ccc(O)cc67)C(=O)N[C@@H]([C@@H](C)CC)C(=O)NC(=C)C(=O)N[C@@H](CC(C)C)C(=O)N5)C(=O)N5CCC[C@H]5C(=O)NCC(=O)N4)C(=O)NCC(=O)N[C@@H](C)C(=O)N[C@@H](CC(C)C)C(=O)N[C@@H](CCSC)C(=O)NCC(=O)N3)[C@H](C)SC[C@H](NC2=O)C(=O)N[C@@H](Cc2c[nH]cn2)C(=O)N1)[C@@H](C)CC)C(C)C)C(=O)N[C@@H](CCCCN)C(=O)O [I1-5HW]
Reduction of antimicrobial activity compared to I1W (L. lactis MG1363; from MIC values): two
Reduction of antimicrobial activity compared to nisin (L. lactis MG1363; from MIC values): four
Retention time of HPLC [1]: 35.0 min

C=C(NC(=O)[C@@H](NC(=O)[C@H](Cc1c[nH]cn1)NC(=O)[C@@H](NC(=O)[C@H](CO)NC(=O)[C@@H]1CS[C@@H](C)[C@H]2NC(=O)[C@H](C)NC(=O)[C@H](NC(=O)[C@H](CCCCN)NC(=O)[C@H](CCSC)NC(=O)[C@H](CC(N)=O)NC(=O)[C@@H]3CS[C@@H](C)[C@@H](NC(=O)[C@H](CCCCN)NC(=O)[C@@H]4CS[C@@H](C)[C@@H](NC(=O)[C@@H]5CSC[C@@H](NC(=O)/C(=C/C)NC(=O)[C@@H](N)Cc6c[nH]c7ccccc67)C(=O)N[C@@H]([C@@H](C)CC)C(=O)NC(=C)C(=O)N[C@@H](CC(C)C)C(=O)N5)C(=O)N5CCC[C@H]5C(=O)NCC(=O)N4)C(=O)NCC(=O)N[C@@H](C)C(=O)N[C@@H](CC(C)C)C(=O)N[C@@H](CCSC)C(=O)NCC(=O)N3)[C@H](C)SC[C@H](NC2=O)C(=O)N[C@@H](Cc2c[nH]cn2)C(=O)N1)[C@@H](C)CC)C(C)C)C(=O)N[C@@H](CCCCN)C(=O)O [I1-W]
Reduction of antimicrobial activity compared to nisin (L. lactis MG1363; from MIC values): two
Retention time of HPLC [1]: 38.0 min
Reduction of nisin activity against Micrococcus flavus (Micrococcus flavus): two to three
Reduction of nisin activity against Streptococcus thermophilus [2]: three to eight

C=C(NC(=O)[C@@H](NC(=O)[C@H](Cc1c[nH]cn1)NC(=O)[C@@H](NC(=O)[C@H](CO)NC(=O)[C@@H]1CS[C@@H](C)[C@H]2NC(=O)[C@H](C)NC(=O)[C@H](NC(=O)[C@H](CCCCN)NC(=O)[C@H](CCSC)NC(=O)[C@H](CC(N)=O)NC(=O)[C@@H]3CS[C@@H](C)[C@@H](NC(=O)[C@H](CCCCN)NC(=O)[C@@H]4CS[C@@H](C)[C@@H](NC(=O)[C@@H]5CSC[C@@H](NC(=O)/C(=C/C)NC(=O)[C@@H](N)[C@@H](C)CC)C(=O)N[C@@H]([C@@H](C)CC)C(=O)NC(=C)C(=O)N[C@@H](CC(C)C)C(=O)N5)C(=O)N5CCC[C@H]5C(=O)NCC(=O)N4)C(=O)NCC(=O)N[C@@H](C)C(=O)N[C@@H](CC(C)C)C(=O)N[C@@H](Cc4c[nH]c5ccc(O)cc45)C(=O)NCC(=O)N3)[C@H](C)SC[C@H](NC2=O)C(=O)N[C@@H](Cc2c[nH]cn2)C(=O)N1)[C@@H](C)CC)C(C)C)C(=O)N[C@@H](CCCCN)C(=O)O [M17-5HW]
Reduction of antimicrobial activity compared to nisin (L. lactis MG1363; from MIC values): 32 times
Retention time of HPLC [1]: 37.2 min

C=C(NC(=O)[C@@H](NC(=O)[C@H](Cc1c[nH]cn1)NC(=O)[C@@H](NC(=O)[C@H](CO)NC(=O)[C@@H]1CS[C@@H](C)[C@H]2NC(=O)[C@H](C)NC(=O)[C@H](NC(=O)[C@H](CCCCN)NC(=O)[C@H](CCSC)NC(=O)[C@H](CC(N)=O)NC(=O)[C@@H]3CS[C@@H](C)[C@@H](NC(=O)[C@H](CCCCN)NC(=O)[C@@H]4CS[C@@H](C)[C@@H](NC(=O)[C@@H]5CSC[C@@H](NC(=O)/C(=C/C)NC(=O)[C@@H](N)[C@@H](C)CC)C(=O)N[C@@H]([C@@H](C)CC)C(=O)NC(=C)C(=O)N[C@@H](CC(C)C)C(=O)N5)C(=O)N5CCC[C@H]5C(=O)NCC(=O)N4)C(=O)NCC(=O)N[C@@H](C)C(=O)N[C@@H](CC(C)C)C(=O)N[C@@H](Cc4c[nH]c5ccccc45)C(=O)NCC(=O)N3)[C@H](C)SC[C@H](NC2=O)C(=O)N[C@@H](Cc2c[nH]cn2)C(=O)N1)[C@@H](C)CC)C(C)C)C(=O)N[C@@H](CCCCN)C(=O)O [M17-W]
Reduction of antimicrobial activity compared to nisin (L. lactis MG1363; from MIC values): 32 times
Retention time of HPLC [1]: 38.5 min
Reduction of nisin activity against Micrococcus flavus (Micrococcus flavus): two to three
Reduction of nisin activity against Streptococcus thermophilus [2]: three to eight
